In ChEMBL document CHEMBL1201862, “PubChem BioAssay data set” (2004):
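In this assay, cells in 96-well plates receive the compound at five concentrations for 48 hours. Endpoints are linearly interpolated between the surrounding concentrations. Abbreviation: GI50, concentration required for 50% inhibition of growth.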 Calls of active or inactive are those of the source. Rule as the data show it: active = GI50 up to about 1.1 µM and inactive = higher.

What was measured:
Experiment in all cases: DTP human tumour cell line panel, 48 h
[1] = system: LOX IMVI
[2] = system: SNB-19
[3] = system: HCT-15
[4] = system: SF-268
[5] = system: OVCAR-5
[6] = system: UACC-62
[7] = system: IGROV-1
[8] = system: UO-31
[9] = system: Malme-3M
[10] = system: SK-MEL-2
[11] = system: NCI-H23
[12] = system: OVCAR-8
[13] = system: NCI-H522
[14] = system: PC-3
[15] = system: SK-MEL-5
[16] = system: 786-0
[17] = system: TK-10
[18] = system: NCI-H226
[19] = system: OVCAR-4
[20] = system: A549

SMILES	GI50 [1]	GI50 [2]	GI50 [3] [µM]	GI50 [4]	GI50 [5]	GI50 [6]	GI50 [7]	GI50 [8]	GI50 [9]	GI50 [10]	GI50 [11]	GI50 [12]	GI50 [13]	GI50 [14]	GI50 [15]	GI50 [16]	GI50 [17]	GI50 [18]	GI50 [19]	GI50 [20]
Cc1ccc2c(c1C)-c1c(ccc(C)c1C)C(=O)C2=O	0.304 µM (active)	0.881 µM (active)	0.292	0.385 µM (active)	1.55 µM (inactive)	0.356 µM (active)	0.357 µM (active)	0.625 µM (active)	0.598 µM (active)	1.19 µM (inactive)	0.53 µM (active)	0.253 µM (active)	0.148 µM (active)	0.265 µM (active)	0.367 µM (active)	0.358 µM (active)	1.18 µM (inactive)	1.66 µM (inactive)	0.0459 µM (active)	0.887 µM (active)
CC1(CC(=O)OC(C#C[Si](C)(C)C)Cc2ccccc2)OCCO1 (stereo not given)	> 100 µM (inactive)	> 100 µM (inactive)	> 100	> 100 µM (inactive)	> 100 µM (inactive)	> 100 µM (inactive)	> 100 µM (inactive)	> 100 µM (inactive)	> 100 µM (inactive)	> 100 µM (inactive)	> 100 µM (inactive)	> 100 µM (inactive)	> 100 µM (inactive)	> 100 µM (inactive)	> 100 µM (inactive)	> 100 µM (inactive)	> 100 µM (inactive)	> 100 µM (inactive)	> 100 µM (inactive)	> 100 µM (inactive)
COc1ccccc1C(=O)N(C)c1ccc(Cl)c(C(=O)OC(C)C)c1	87.3 µM (inactive)	> 100 µM (inactive)	39.5	95.9 µM (inactive)	> 100 µM (inactive)	48.8 µM (inactive)	> 100 µM (inactive)	28.7 µM (inactive)	> 100 µM (inactive)	61.5 µM (inactive)	49.2 µM (inactive)	> 100 µM (inactive)	39.5 µM (inactive)	31.8 µM (inactive)	22.8 µM (inactive)	36.2 µM (inactive)	34 µM (inactive)	> 100 µM (inactive)	35.6 µM (inactive)	49.9 µM (inactive)
N=C(N)SCc1ccc(N=C=S)cc1	12.8 µM (inactive)	13.8 µM (inactive)	11.3	20.2 µM (inactive)	14.4 µM (inactive)	11.4 µM (inactive)	12.9 µM (inactive)	12.5 µM (inactive)	14.3 µM (inactive)	10.4 µM (inactive)	14.2 µM (inactive)	15.2 µM (inactive)	10 µM (inactive)	15.9 µM (inactive)	14 µM (inactive)	13.8 µM (inactive)	14.5 µM (inactive)	15.6 µM (inactive)	14.3 µM (inactive)	16.3 µM (inactive)
CC(C)C1OC(=O)C(Cc2ccccc2)N(C)C(=O)C(C(C)C)OC(=O)C(Cc2ccccc2)N(C)C(=O)C(C(C)C)OC(=O)C(Cc2ccccc2)N(C)C1=O (stereo not given)	0.802 µM (active)	0.805 µM (active)	0.891	1.4 µM (inactive)	1.03 µM (active)	0.643 µM (active)	1.03 µM (active)	0.307 µM (active)	0.359 µM (active)	0.628 µM (active)	1.03 µM (active)	0.723 µM (active)	0.689 µM (active)	0.687 µM (active)	0.53 µM (active)	1.17 µM (inactive)	0.757 µM (active)	1.36 µM (inactive)	0.463 µM (active)	0.618 µM (active)
Cc1ccc(/N=C2\SC(=NN(C)C)S\C2=N/c2ccc(C)cc2)cc1	> 100 µM (inactive)	> 100 µM (inactive)	> 100	> 100 µM (inactive)	> 100 µM (inactive)	> 100 µM (inactive)	> 100 µM (inactive)	> 100 µM (inactive)	> 100 µM (inactive)	> 100 µM (inactive)	> 100 µM (inactive)	> 100 µM (inactive)	4.71 µM (inactive)	> 100 µM (inactive)	> 100 µM (inactive)	> 100 µM (inactive)	> 100 µM (inactive)	> 100 µM (inactive)	> 100 µM (inactive)	> 100 µM (inactive)
O=[N+]([O-])C(=C(N1CCCCC1)N1CCCCC1)/C(Cl)=C(\Cl)[N+](=O)[O-]	2.32 µM (inactive)	19.9 µM (inactive)	2.17	12.1 µM (inactive)	17.9 µM (inactive)	15 µM (inactive)	1.72 µM (inactive)	3.54 µM (inactive)	2.37 µM (inactive)	16.9 µM (inactive)	5.6 µM (inactive)	10.9 µM (inactive)	1.76 µM (inactive)	14.3 µM (inactive)	5.69 µM (inactive)	3.42 µM (inactive)	5.41 µM (inactive)	20.6 µM (inactive)	8.2 µM (inactive)	19.5 µM (inactive)
CNc1ccc(C(=O)CC(O)CCC(C)C2OC(=O)CC(O)CC(=O)CC(O)CC(O)CC(O)CC(O)CC3(O)CC(O)C(C(=O)N4CCOCC4)C(CC(OC4OC(C)C(O)C(N)C4O)\C=C/C=C\C=C/C=C/C=C/C=C\C=C/C2C)O3)cc1 (stereo not given)	0.243 µM (active)	0.365 µM (active)	0.308	0.218 µM (active)	0.607 µM (active)	0.258 µM (active)	0.244 µM (active)	0.195 µM (active)	0.137 µM (active)	0.421 µM (active)	0.329 µM (active)	0.376 µM (active)	0.244 µM (active)	0.355 µM (active)	0.181 µM (active)	0.325 µM (active)	0.247 µM (active)	0.277 µM (active)	0.228 µM (active)	0.275 µM (active)
N=C1OC(c2cccc(Cl)c2)C(NNS(=O)(=O)c2ccccc2)=C1O (stereo not given)	20.7 µM (inactive)	55.5 µM (inactive)	12.2	39.7 µM (inactive)	31.9 µM (inactive)	24.9 µM (inactive)	70.5 µM (inactive)	26.6 µM (inactive)	22.4 µM (inactive)	24.9 µM (inactive)	25.8 µM (inactive)	30.5 µM (inactive)	10.6 µM (inactive)	21.2 µM (inactive)	41.7 µM (inactive)	24.8 µM (inactive)	37.7 µM (inactive)	43.9 µM (inactive)	52.5 µM (inactive)	80.9 µM (inactive)
NS(=O)(=O)c1ccc(N2C(=O)C(=O)N(c3ccccc3)C2=S)cc1	> 100 µM (inactive)	> 100 µM (inactive)	60.3	> 100 µM (inactive)	> 100 µM (inactive)	> 100 µM (inactive)	> 100 µM (inactive)	> 100 µM (inactive)	> 100 µM (inactive)	> 100 µM (inactive)	> 100 µM (inactive)	> 100 µM (inactive)	27 µM (inactive)	> 100 µM (inactive)	97.1 µM (inactive)	> 100 µM (inactive)	> 100 µM (inactive)	61.1 µM (inactive)	30.6 µM (inactive)	> 100 µM (inactive)
N#Cc1c(N2CCCC2)ncn(Cc2ccccc2)c1=S	> 100 µM (inactive)	58.5 µM (inactive)	> 100	33.6 µM (inactive)	> 100 µM (inactive)	68.7 µM (inactive)	> 87.9 µM (inactive)	> 100 µM (inactive)	> 87.9 µM (inactive)	> 100 µM (inactive)	> 100 µM (inactive)	57.1 µM (inactive)	> 90.4 µM (inactive)	71.3 µM (inactive)	> 100 µM (inactive)	36.2 µM (inactive)	> 100 µM (inactive)	> 96.2 µM (inactive)	44.2 µM (inactive)	> 100 µM (inactive)
COc1ccc(CSCc2cc(OC)c(OC)c(OC)c2)cc1	28.4 µM (inactive)	> 68.1 µM (inactive)	> 45.3	> 100 µM (inactive)	> 100 µM (inactive)	> 43 µM (inactive)	> 100 µM (inactive)	> 100 µM (inactive)	> 31.6 µM (inactive)	> 100 µM (inactive)	> 76 µM (inactive)	> 31.6 µM (inactive)	> 100 µM (inactive)	> 31.6 µM (inactive)	21.2 µM (inactive)	> 100 µM (inactive)	> 100 µM (inactive)	> 100 µM (inactive)	> 100 µM (inactive)	> 100 µM (inactive)
CC(=O)OC1CC[C@@]2(C)C(CC[C@]3(C)C2CC=C2[C@@H]4CC(C)(C)CCC4(C)CCC23C)[C@@]1(C)C(=O)O (stereo not given in full)	13.8 µM (inactive)	18.9 µM (inactive)	7.93	18.2 µM (inactive)	22.7 µM (inactive)	15.4 µM (inactive)	16.4 µM (inactive)	16 µM (inactive)	21.4 µM (inactive)	15.7 µM (inactive)	11.4 µM (inactive)	14 µM (inactive)	5.77 µM (inactive)	6.61 µM (inactive)	16.9 µM (inactive)	17.6 µM (inactive)	22.3 µM (inactive)	22 µM (inactive)	14.9 µM (inactive)	7.41 µM (inactive)
CC1(C)CCC[C@](C)([C@H]2CC[C@]3(C)[C@@H]2[C@H](O)C[C@@H]2[C@@]4(C)CC[C@H](O)C(C)(C)[C@@H]4[C@H](O)C[C@]23C)O1	17.5 µM (inactive)	11.5 µM (inactive)	11.6	13.8 µM (inactive)	20.1 µM (inactive)	13.3 µM (inactive)	17.5 µM (inactive)	11.7 µM (inactive)	19.1 µM (inactive)	13 µM (inactive)	11.3 µM (inactive)	16.9 µM (inactive)	12.1 µM (inactive)	10.9 µM (inactive)	3.64 µM (inactive)	19 µM (inactive)	11.3 µM (inactive)	15.7 µM (inactive)	10.6 µM (inactive)	9.68 µM (inactive)
